Assay results taken from US6943179B2, “Biurethane derivatives” (Merck Patent GmbH, priority 2001, dated 2005).

Experiments:
FXa = FXa (Homo sapiens, UniProt P00742); assay: Factor Xa inhibition (FXa-IC50); assay type: biochemical
Excerpt: The inhibition of factor Xa by the compounds according to the invention and the measurement of the anticoagulant and antithrombotic activity can be determined by conventional in-vitro or in-vivo methods. A suitable method is described, for example, by J. Hauptmann et al. in Thrombosis and Haemostasis 1990, 63, 220-223.
The inhibition of factor Xa can be measured, for example, by the method of T. Hara et al. in Thromb. Haemostas. 1994, 71, 314-319.

TF/FVIIa = target: T1, TF/FVIIa (Homo sapiens, UniProt P08709); assay: TF/FVIIa inhibition (TF/FVIIa-IC50); assay type: biochemical
T1 construct: Coagulation factor VIIa initiates the extrinsic part of the coagulation cascade
Excerpt: The inhibition of factor VIIa by the compounds according to the invention and the measurement of the anticoagulant and antithrombotic activity can be determined by conventional in-vitro or in-vivo methods. A conventional method for the measurement of the inhibition of factor VIIa is described, for example, by H. F. Ronning et al. in Thrombosis Research 1996, 84, 73-81.

T1 sequence (P08709 213-466 limits assumed): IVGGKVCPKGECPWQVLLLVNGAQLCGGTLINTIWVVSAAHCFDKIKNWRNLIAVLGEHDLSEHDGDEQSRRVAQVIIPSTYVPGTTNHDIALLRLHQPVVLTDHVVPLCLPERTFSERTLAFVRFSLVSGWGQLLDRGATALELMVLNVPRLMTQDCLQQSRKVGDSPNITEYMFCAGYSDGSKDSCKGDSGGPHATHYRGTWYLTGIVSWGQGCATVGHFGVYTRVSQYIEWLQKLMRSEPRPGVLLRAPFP
T1 sequence (P08709 61-212 limits assumed): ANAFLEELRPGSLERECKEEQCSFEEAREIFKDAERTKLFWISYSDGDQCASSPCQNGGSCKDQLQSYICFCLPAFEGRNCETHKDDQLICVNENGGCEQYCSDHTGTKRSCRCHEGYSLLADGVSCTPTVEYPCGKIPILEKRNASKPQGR
T1 sequence (P13726 33-295 partner): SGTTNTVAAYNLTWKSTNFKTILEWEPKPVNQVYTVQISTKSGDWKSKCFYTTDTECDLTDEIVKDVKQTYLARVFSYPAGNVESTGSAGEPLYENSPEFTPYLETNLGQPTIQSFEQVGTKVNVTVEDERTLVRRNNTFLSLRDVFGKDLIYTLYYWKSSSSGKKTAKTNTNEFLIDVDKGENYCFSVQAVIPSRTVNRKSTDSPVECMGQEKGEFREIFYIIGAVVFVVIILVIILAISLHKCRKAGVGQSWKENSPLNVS
Chain of FXa (P00742 235-488 limits assumed): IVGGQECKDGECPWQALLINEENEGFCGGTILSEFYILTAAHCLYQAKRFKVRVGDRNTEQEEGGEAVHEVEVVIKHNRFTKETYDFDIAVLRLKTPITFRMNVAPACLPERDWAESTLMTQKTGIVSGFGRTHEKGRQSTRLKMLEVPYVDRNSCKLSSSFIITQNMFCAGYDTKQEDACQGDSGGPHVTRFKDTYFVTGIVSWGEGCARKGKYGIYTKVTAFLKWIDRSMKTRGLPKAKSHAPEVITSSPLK
Chain of FXa (P00742 41-179 limits assumed): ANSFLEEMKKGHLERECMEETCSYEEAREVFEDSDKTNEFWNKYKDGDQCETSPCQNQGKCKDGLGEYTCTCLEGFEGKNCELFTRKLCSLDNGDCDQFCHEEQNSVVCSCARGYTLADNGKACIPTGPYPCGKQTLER

With O=C(Nc1ccc(Cl)cc1)NN(C(=O)Nc1ccc(N2CCCCC2=O)cc1)c1ccccc1 [No. 1, N-(4-Chlorophenylaminocarbonyl)-N′-[4-(2-oxo-1-piperidyl)phenylaminocarbonyl]-N′-phenylhydrazine] the IC50 (FXa) was 180 nM, the IC50 (TF/FVIIa) was 91 nM and the melting point was 165 to 170 °C (dec.).
In the case of O=C(Nc1ccc(Cl)cc1)NN(C(=O)Nc1ccc(N2CCCCC2=O)cc1)c1ccc(Cl)cc1 [compound 2], the IC50 (FXa) is reported as 670 nM, the IC50 (TF/FVIIa) is reported as 340 nM and the melting point is reported as 170 to 175 °C.
CS(=O)(=O)c1ccccc1-c1ccc(NC(=O)N(NC(=O)Nc2ccc(Cl)cc2)c2ccccc2)cc1 [compound 3] showed an IC50 (FXa) of 390 nM, an IC50 (TF/FVIIa) of 190 nM and a melting point of over 250 °C.
